Measured values: article PMC11407758, “Integrated stress response (ISR) activation and apoptosis through HRI kinase by PG3 and other p53 pathway-restoring cancer therapeutics” (Oncotarget, 2024)
Peptide text beside a SMILES is read from it. * marks the point of attachment. Cbz = O=C(OCc1ccccc1)*; CH2F = FC*

How the values were obtained:
Format in all cases: cell-based, human
[1] = test system: GCN2, PKR, eIF2α, ATF4, CHOP in HT29 cells; experiment: Western blot, ISR kinases / eIF2α / ATF4 / CHOP; conditions: pre-treatment 2 hours, then ONC201 or PG3 for 24 hour
Protocol: Figure 7 PG3 induces upregulation of ATF4 through ISR via HRI. (A) HT29 cells were treated with PG3, GSK2606414, TG and ONC201 respectively, or co-treatment with PG3/GSK2606414, PG3/TG, and PG3/ONC201 for 15 h. (B) MEF, MEF^PERK−/− and MEF^GCN2−/− cells were treated with PG3 and ONC201 for 16 hours. (C) HT29 cells were transfected with siControl, siPKR, siHRI and siPKR/siHRI for 24 hours and then treated with PG3 for 16 hours. (D) HCT116 p53^−/− cells were transfected with siControl and siHRI for 24 hours and then treated with PG3 for 16 hours. (E) HCT116 p53^−/− cells were treated with PG3 and ONC201 for indicated times. (F) PANC1-sgCtrl, -sgHRI and -sgPKR cell lines were treated with PG3 and imipridones (ONC201, ONC206 and ONC212) for 16 hours. Western blot was performed using indicated antibodies. (G) Proposed model of PG3-induced cell apoptosis through HRI/ATF4/PUMA axis. Abbreviation: L.E.: Long exposure.
(§1) After treatment, protein lysates were collected for Western blot analysis. A total of 15 μg of protein was used for SDS-PAGE. After primary and secondary antibody incubations, the signal was detected by a chemiluminescence detection kit, imaged by Syngene (Imgen Technologies). Antibodies for NAG-1 (GDF15) and P53 were from Santa Cruz Biotechnology; for caspase 8, cleaved caspase 8, caspase 9, caspase 3, cleavage PARP, eIF2α, p-eIF2α (Ser51), CHOP, ATF4, DR5, and PUMA were from Cell Signaling Technology. Noxa and p21 were from Calbiochem. Ran was from BD Biosciences.
Supplementary Figure 2: ROS and NO are not responsible for PG3-induced HRI activation. (A, B) cells were pre-treated
with ZnPP, L-NMMA, SA and NAC for 2 hours respectively, and then ONC201 or PG3 was added to the medium for 24 hour treatment.
Western blot was performed using indicated antibodies.
(1 picture or pasted object on this page, not shown here)

DR5 = experiment: Western blot, DR5 induction; conditions: five cell lines, 24 h
Protocol: (§2) Figure 4 Activation of ATF4 and up-regulation of typical p53 target genes. (A–E) Western blot analysis of p53 protein levels and upregulation of ATF4, PUMA, DR5 and p21. Cells were treated for 24 h with indicated compounds, concentrations and cell lines. Abbreviations: S.E.: Short exposure; L.E.: Long exposure.
as §1

ATF4 = experiment: Western blot, ATF4 induction; conditions: five cancer cell lines, 24 h
Protocol: as §2, §1

p53 protein = experiment: Western blot, p53 protein levels
Protocol: Cells were treated for 24 h with indicated compounds, concentrations and cell lines. Abbreviations: S.E.: Short exposure; L.E.: Long exposure.
as §1

HCT116 (WT) = experiment: Cell viability assay (CellTiterGlo), HCT116 WT; conditions: p53 wild-type HCT116, 6.67 μM
Protocol: (§3) Figure 1 PG3 inhibits cell proliferation and growth in a p53-indepent manner. (A–E) Cell viability assay, dose response curves and IC50 value measurements in a panel of cancer cell lines and normal cells. Cells were treated with different concentrations of PG3, PG3-Oc (Oc), obatoclax (Ob), prodigiosin (P) or DMSO for 72 h. Luciferase activity was imaged by the IVIS Imaging System after treatment. Cell viability data were normalized to those of DMSO treatment control in each cell line and data analyses were performed using PRISM4 software. IC50 data are expressed as the mean ±SD (normal; n = 3).
as §3, with “2 p53-dependent inhibition of” for “1 PG3 inhibits”, “is only observed at specific concentrations. (A–J)” for “and growth in a p53-indepent manner. (A–E)”, “ZMC1, CP-313908, APR-246, Ellipticine, Nutalin-3a” for “PG3, PG3-Oc (Oc), obatoclax (Ob), prodigiosin (P)”
(§4) Cells were seeded in 96-well plates (6 × 10^3 cells/well). Cells were treated with different concentrations of compounds or dimethyl sulfoxide (DMSO) as a control for 72 hours. The cell viability was assessed by CellTiterGlo bioluminescent cell viability assay (Promega), following the manufacturer’s protocol. Bioluminescence imaging was measured using the IVIS imager. The percentage of cell viability (mean ± SEM) at each dose was calculated against the respective DMSO control. The IC50 values were determined from the sigmoidal dose-response curves using GraphPad Prism.

PUMA = experiment: Western blot, PUMA induction; conditions: HCT116 (p53 wild-type), 24 h
Protocol: as §2, §1

[2] = test system: HT29, TOV-112D, isogenic HCT116 cell lines, HFF-1 and MRC5; experiment: Cell viability assay, panel of cancer cell lines and normal cells (results in words)
Protocol: as §3, with “2 p53-dependent inhibition of” for “1 PG3 inhibits”, “is only observed at specific concentrations. (A–J)” for “and growth in a p53-indepent manner. (A–E)”, “ZMC1, CP-313908, APR-246, Ellipticine, Nutalin-3a” for “PG3, PG3-Oc (Oc), obatoclax (Ob), prodigiosin (P)”
as §4

p21 = experiment: Western blot, p21 induction; conditions: HCT116 (p53 wild-type), 24 h
Protocol: as §2, §1

[3] = test system: cleaved caspase-8, -3, cleaved PARP and PUMA in HT29, SW480 and HCT116 p53−/− cells; experiment: Western blot, apoptosis markers in PG3-treated cells; conditions: co-treatment with PG3; HT29, SW480, HCT116 p53–/–
Protocol: Figure 5 PG3 induces apoptosis in p53-null and p53-mutant cancer cell lines. (A–E) Dose-response and time-course analysis of cleavage of caspase-8, -3, cleaved PARP and PUMA in PG3-treated HT29, SW480 and HCT116 p53^−/− cells by western blot using the indicated antibodies. (F–H) Flowcytometry analysis of cell death. (I) HT29 and HT29-PUMA^−/− and (J) SW480 cells were co-treated with PG3 and pan-caspase inhibitor Z-VAD-fmk for 48 h. (K) HCT116 p53^−/− cell were co-treated with PG3 and Z-VAD-fmk for 24 hours.
as §1

CC(=O)N[C@@H](CS)C(=O)O [NAC, N-acetylcysteine]
effect on PG3- or ONC201-induced upregulation of ATF4 [1]: do not attenuate or block

COc1ccc(C2=N[C@@H](c3ccc(Cl)cc3)[C@@H](c3ccc(Cl)cc3)N2C(=O)N2CCNC(=O)C2)c(OC(C)C)c1 [Nutlin-3a]
upregulation of DR5 (DR5): does not upregulate DR5 | upregulation of ATF4 (ATF4): do not upregulate ATF4 | wild-type p53 protein level (p53 protein; HCT116, 24 h): stabilizes | endogenous mutant p53 R273H protein level (p53 protein; HT29, 24 h): no effects | endogenous mutant p53 R175H protein level (p53 protein; TOV-112D, 24 h): no effects | exogenous mutant p53 R175H protein level (p53 protein; engineered HCT116-R175H cells, 24 h): no effects | inhibition of viability (HCT116 (WT)): selectively inhibits the viability | upregulation of PUMA (PUMA): significantly upregulates | inhibitory activity ([2]; HT29 and TOV-112D): shows inhibitory activity | effect on viability ([2]; p53-null and p53 R175H HCT116, 6.67 μM): no significant effects | upregulation of p21 (p21): significantly upregulates

COC(=O)C[C@H](NC(=O)[C@H](C)NC(=O)[C@@H](NC(=O)OCc1ccccc1)C(C)C)C(=O)CF [Z-VAD-FMK] (Cbz-Val-Ala-Asp(OMe)-CH2F)
effect on PG3-induced cleavage of PARP, caspase-8 and -3 [3]: potently inhibits the cleavage of PARP, caspase-8, and -3

C=CC1=C(C)c2cc3[n-]c(cc4nc(cc5[n-]c(cc1n2)c(C)c5C=C)C(C)=C4CCC(=O)O)c(CCC(=O)O)c3C.[Zn+2] [ZnPP, Zinc protoporphyrin]
effect on PG3- or ONC201-induced upregulation of ATF4 [1]: do not attenuate or block
